The values below come from ChEMBL document CHEMBL1125858, “Synthesis and biological activity of MK 287 (L-680,573): a potent, specific and orally active paf receptor antagonist” (Bioorg Med Chem Lett, 1991).

The structures appear in SMILES notation. pIC50: −log10 of the molar value. Calls of active or inactive are those of the source. No cut-off for these calls is given here.

Data set [1] is described as follows: Half-life in rhesus monkeys by intravenous administration of dose. In kind it is ADME, organism-based. The following applies: cercopithecidae, in vivo.
In data set [2] the target is Beta-1 adrenergic receptor (Cavia porcellus) (UniProt B0FL73). In words: Compound was tested for it's binding affinity towards guinea pig heart Beta-1 adrenergic receptor at a concentration of 10 uM; NA means no affinity.
Data set [3] addresses Beta-2 adrenergic receptor (Cavia porcellus) (UniProt Q8K4Z4). Put plainly: Compound was tested for it's binding affinity towards guinea pig lung Beta-2 adrenergic receptor at a concentration of 10 uM; NA means no affinity.
The test system of data set [4] is Cavia porcellus. Put plainly: Compound was tested for it's ability to inhibit PAF-induced bronchoconstriction in female guinea pigs after intravenous dosing. In kind it is functional.
For data set [5], the system named is Cavia porcellus. In words: Compound was tested for it's ability to inhibit PAF-induced bronchoconstriction in male guinea pigs after intravenous dosing. It is filed as functional.
Data set [6] relates to Rattus norvegicus. Put plainly: In vivo efficacy for inhibition of PAF-induced (10 nM/kg) extravasation in male and female rats in a dose-dependent manner. It is filed as functional.
In data set [7] the test system is Rattus norvegicus. Put plainly: In vivo efficacy for increased plasma N-acetyl-beta-D-glucosaminidase (NAGA) activity in male and female rats in a dose-dependent manner. It is filed as functional.
In data set [8] the target is T1, Alpha-1A adrenergic receptor (Bos taurus) (UniProt P18130).
T1 sequence (whole entry): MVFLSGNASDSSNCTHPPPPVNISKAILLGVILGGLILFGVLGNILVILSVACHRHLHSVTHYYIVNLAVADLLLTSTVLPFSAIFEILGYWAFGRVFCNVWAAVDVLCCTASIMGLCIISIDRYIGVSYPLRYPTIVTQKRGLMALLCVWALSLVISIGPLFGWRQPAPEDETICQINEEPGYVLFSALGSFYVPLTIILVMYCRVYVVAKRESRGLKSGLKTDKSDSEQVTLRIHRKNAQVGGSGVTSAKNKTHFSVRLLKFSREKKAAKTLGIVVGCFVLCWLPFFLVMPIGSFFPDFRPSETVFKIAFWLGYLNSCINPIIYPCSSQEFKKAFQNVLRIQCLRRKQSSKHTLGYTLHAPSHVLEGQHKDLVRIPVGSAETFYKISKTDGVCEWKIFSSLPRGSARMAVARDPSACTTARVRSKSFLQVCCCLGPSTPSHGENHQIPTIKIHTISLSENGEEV
In words: Compound was tested for it's binding affinity towards calf brain alpha 1 receptor at a concentration of 10 uM; NA means no affinity.

Data set [9] concerns the target T2, Alpha-2A adrenergic receptor (Bos taurus) (UniProt Q28838).
T2 sequence (whole entry): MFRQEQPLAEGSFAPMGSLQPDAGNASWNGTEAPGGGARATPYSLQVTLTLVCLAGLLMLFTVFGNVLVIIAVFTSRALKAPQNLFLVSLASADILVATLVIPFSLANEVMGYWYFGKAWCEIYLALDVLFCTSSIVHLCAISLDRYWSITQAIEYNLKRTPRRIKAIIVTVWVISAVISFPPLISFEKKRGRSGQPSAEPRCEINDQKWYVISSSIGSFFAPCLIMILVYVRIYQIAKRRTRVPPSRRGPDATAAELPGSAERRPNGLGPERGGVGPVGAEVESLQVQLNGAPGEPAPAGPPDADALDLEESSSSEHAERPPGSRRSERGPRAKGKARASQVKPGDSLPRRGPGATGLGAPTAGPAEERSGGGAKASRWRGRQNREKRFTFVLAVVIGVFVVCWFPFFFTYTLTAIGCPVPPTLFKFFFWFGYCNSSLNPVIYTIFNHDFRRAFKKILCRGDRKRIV
Put plainly: Compound was tested for it's binding affinity towards calf brain alpha 2 receptor at a concentration of 10 uM; NA means no affinity.

Data set [10] is filed under the species Homo sapiens. In words: Compound was tested for human platelet aggregation induced by ADP at concentrations from 1 to 10 uM; NE means no effect. It is filed as functional, organism-based.
For data set [11], the species on record is Homo sapiens. Put plainly: Compound was tested for human platelet aggregation induced by thromboxane A2 agonist U-44,069 at concentrations from 1 to 10 uM; NE means no effect. In kind it is functional, organism-based.
The species named for data set [12] is Homo sapiens. In words: Compound was tested for human platelet aggregation induced by vasopressin at concentrations from 1 to 10 uM; NE means no effect. In kind it is functional, organism-based.
The species entered for data set [13] is Homo sapiens. Put plainly: Compound was tested for PAF-induced human platelet aggregation in plasma-rich platelets. It is filed as functional, organism-based.
The species named for data set [14] is Homo sapiens. Put plainly: Compound was tested for PAF-induced human platelet aggregation in washed platelets. In kind it is functional, organism-based.
For data set [15], the species on record is Homo sapiens. In words: The compound was tested for PAF-induced degranulation in preincubated isolated human neutrophils. It is filed as functional.
Data set [16] has as its target C5a anaphylatoxin chemotactic receptor 1 (Homo sapiens) (UniProt P21730). The following applies: 1 to 10 uM.
Description: Compound was tested for it''s ability to inhibit binding of [125I]C5a radioligand to its receptor at a concentration of 1 to 10 uM; NS means no significant inhibition
Data set [17] has as its target Leukotriene B4 receptor 1 (Homo sapiens) (UniProt Q15722). The conditions noted are these: 1 to 10 uM.

Chain of Leukotriene B4 receptor 1 (Homo sapiens) (Q15722 whole entry, looked up): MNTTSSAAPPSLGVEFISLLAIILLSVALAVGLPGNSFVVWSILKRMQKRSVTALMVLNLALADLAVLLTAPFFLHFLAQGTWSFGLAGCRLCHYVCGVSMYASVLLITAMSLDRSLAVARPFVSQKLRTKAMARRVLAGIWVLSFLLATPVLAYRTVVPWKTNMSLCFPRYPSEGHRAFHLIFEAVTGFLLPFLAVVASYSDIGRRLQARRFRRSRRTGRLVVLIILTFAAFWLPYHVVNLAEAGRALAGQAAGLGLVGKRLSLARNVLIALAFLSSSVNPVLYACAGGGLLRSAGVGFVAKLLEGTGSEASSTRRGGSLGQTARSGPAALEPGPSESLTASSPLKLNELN
Chain of Beta-2 adrenergic receptor (Cavia porcellus) (Q8K4Z4 whole entry, looked up): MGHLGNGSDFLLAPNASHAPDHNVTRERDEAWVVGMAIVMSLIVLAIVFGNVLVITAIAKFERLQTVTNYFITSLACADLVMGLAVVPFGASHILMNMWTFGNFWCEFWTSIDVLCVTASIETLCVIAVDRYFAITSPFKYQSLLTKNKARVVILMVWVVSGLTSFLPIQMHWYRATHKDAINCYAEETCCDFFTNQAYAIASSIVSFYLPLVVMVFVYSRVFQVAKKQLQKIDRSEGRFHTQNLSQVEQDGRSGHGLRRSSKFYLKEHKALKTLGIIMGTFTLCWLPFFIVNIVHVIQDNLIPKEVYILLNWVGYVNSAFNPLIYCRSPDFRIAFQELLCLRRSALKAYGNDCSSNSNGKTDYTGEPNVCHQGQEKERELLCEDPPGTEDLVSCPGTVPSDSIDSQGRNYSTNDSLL
Chain of C5a anaphylatoxin chemotactic receptor 1 (Homo sapiens) (P21730 whole entry, looked up): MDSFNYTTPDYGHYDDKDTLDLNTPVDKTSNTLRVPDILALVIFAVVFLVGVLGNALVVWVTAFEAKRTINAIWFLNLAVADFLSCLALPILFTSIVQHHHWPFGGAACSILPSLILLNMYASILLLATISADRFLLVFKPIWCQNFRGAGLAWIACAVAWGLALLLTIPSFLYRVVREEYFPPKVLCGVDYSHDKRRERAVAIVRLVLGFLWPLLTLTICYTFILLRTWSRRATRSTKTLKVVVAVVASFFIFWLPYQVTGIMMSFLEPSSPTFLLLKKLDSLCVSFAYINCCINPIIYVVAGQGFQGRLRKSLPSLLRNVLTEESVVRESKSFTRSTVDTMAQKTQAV
Chain of Beta-1 adrenergic receptor (Cavia porcellus) (B0FL73 1-467): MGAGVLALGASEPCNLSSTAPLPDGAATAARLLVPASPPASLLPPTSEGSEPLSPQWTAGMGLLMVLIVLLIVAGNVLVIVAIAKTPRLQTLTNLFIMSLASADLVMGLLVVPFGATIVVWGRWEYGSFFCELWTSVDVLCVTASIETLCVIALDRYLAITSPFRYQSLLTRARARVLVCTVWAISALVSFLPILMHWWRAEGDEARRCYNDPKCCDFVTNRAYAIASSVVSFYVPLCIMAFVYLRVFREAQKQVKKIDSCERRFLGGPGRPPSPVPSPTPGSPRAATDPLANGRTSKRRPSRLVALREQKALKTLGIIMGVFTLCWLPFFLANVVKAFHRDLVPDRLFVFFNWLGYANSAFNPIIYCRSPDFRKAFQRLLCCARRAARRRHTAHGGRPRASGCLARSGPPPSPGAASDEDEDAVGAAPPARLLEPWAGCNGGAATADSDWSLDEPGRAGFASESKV

Molecule `COc1cc([C@H]2CC[C@H](c3cc(OC)c(OC)c(OC)c3)O2)cc(OC)c1OC` registered a half-life in data set [1] of 14 min.
As for `CCCOc1c(OC)cc([C@@H]2CC[C@@H](c3cc(OC)c(OC)c(OC)c3)O2)cc1S(=O)(=O)CCO`, the Affinity entry in data set [2], in data set [3], in [8] and in [9] was “inactive” each time. Also, the ED50 in the data set with Cavia porcellus [4] amounted to 0.1 mg/kg; in the data set on Cavia porcellus [5], 0.19 mg/kg; with Rattus norvegicus [6], 2.3 mg/kg; in the data set with Rattus norvegicus [7], 0.1 mg/kg. Moreover, the outcome in the data set listed under Homo sapiens [10], in the data set filed under Homo sapiens [11] and in the data set listed under Homo sapiens [12] was inactive. In addition, the figures for the pIC50 in the data set filed under Homo sapiens [13], in the data set filed under Homo sapiens [14] and in the data set filed under Homo sapiens [15] were 7.25, 8.82 and 8.40, respectively. For the same molecule, the inhibition result in data set [16] and in data set [17] was “inactive” each time.
